# Reference: US20210060033A1, “ORALLY ADMINISTERED COMBINATIONS OF BETA-LACTAM ANTIBIOTICS AND AVIBACTAM DERIVATIVES FOR TREATING BACTERIAL INFECTIONS” (priority 2019, published 2021)
# Several values for one entry are separate records, joined by “and”; a condition that tells them apart may be missing. Equal values may be shown once. Where a name gives a salt, the structure may show the parent alone. Read-outs that look alike come from different tables or passages of the source.
# What was measured:
# K. pneumoniae 908 [1] = test: Microbroth MIC, K. pneumoniae 908; type: cell-based, Klebsiella pneumoniae
# K. pneumoniae 19701 [2] = test: Agar MIC, K. pneumoniae 19701; type: cell-based, Klebsiella pneumoniae
# E. coli ATCC 25922 [3] = test: Microbroth MIC, E. coli ATCC 25922; type: cell-based; conditions: Escherichia coli, ATCC25922
# K. pneumoniae 79 [4] = test: Agar MIC, K. pneumoniae 79; type: cell-based, Klebsiella pneumoniae
# K. pneumoniae 908 [5] = test: Agar MIC, K. pneumoniae 908; type: cell-based, Klebsiella pneumoniae
# E. cloacae 4184 [6] = test: Agar MIC, E. cloacae 4184; type: cell-based; conditions: Enterobacter cloacae; E. cloacae 4184 (De-repressed AmpC)
# K. pneumoniae 27144 [7] = test: Microbroth MIC, K. pneumoniae 27144; type: cell-based; conditions: Klebsiella pneumoniae; K. pneumoniae 27144 (CTX-M-15, OXA-1, OXA-48, SHV-11, TEM-1)
# K. pneumoniae 27144 [8] = test: Agar MIC, K. pneumoniae 27144; type: cell-based; conditions: Klebsiella pneumoniae; K. pneumoniae 27144 (CTX-M-15, OXA-1, OXA-48, SHV-11, TEM-1)
# K. pneumoniae 4582 [9] = test: Agar MIC, K. pneumoniae 4582; type: cell-based, Klebsiella pneumoniae
# E. coli 136-4643 [10] = test: Agar MIC, E. coli 136-4643; type: cell-based; conditions: Escherichia coli, 1364643; E. coli 136-4643 (CTX-M-15)
# K. pneumoniae 19701 [11] = test: Microbroth MIC, K. pneumoniae 19701; type: cell-based, Klebsiella pneumoniae
# E. coli ATCC 35218 [12] = test: Microbroth MIC, E. coli ATCC 35218; type: cell-based; conditions: Escherichia coli, ATCC35218; E. coli ATCC 35218 (TEM-1 Quality Control Strain)
# E. coli 470-21711 [13] = test: Agar MIC, E. coli 470-21711; type: cell-based; conditions: Escherichia coli, 47021711; E. coli 470-21711 (CTX-M-15)
# E. cloacae 0002 [14] = test: Agar MIC, E. cloacae 0002; type: cell-based, Enterobacter cloacae
# K. pneumoniae 15160 [15] = test: Agar MIC, K. pneumoniae 15160; type: cell-based; conditions: Klebsiella pneumoniae; K. pneumoniae 15160 (CTX-M-15, CTX-M-2, OXA-10, OXA-1, SHV-11, TEM-1)
# E. coli ATCC 35218 [16] = test: Agar MIC, E. coli ATCC 35218; type: cell-based; conditions: Escherichia coli, ATCC35218; E. coli ATCC 35218 (TEM-1 Quality Control Strain)
# E. cloacae 0065 [17] = test: Microbroth MIC, E. cloacae 0065; type: cell-based; conditions: Enterobacter cloacae; E. cloacae 0065 (cAmpC)
# K. pneumoniae 700603 [18] = test: Microbroth MIC, K. pneumoniae 700603; type: cell-based; conditions: Klebsiella pneumoniae; K. pneumoniae 700603 (SHV-18)
# E. cloacae 4182 [19] = test: Agar MIC, E. cloacae 4182; type: cell-based; conditions: Enterobacter cloacae; E. cloacae 4182 (De-repressed AmpC)
# K. pneumoniae 79 [20] = test: Microbroth MIC, K. pneumoniae 79; type: cell-based, Klebsiella pneumoniae
# E. cloacae 0060 [21] = test: Agar MIC, E. cloacae 0060; type: cell-based; conditions: Enterobacter cloacae; E. cloacae 0060 (cAmpC)
# E. cloacae 4184 [22] = test: Microbroth MIC, E. cloacae 4184; type: cell-based; conditions: Enterobacter cloacae; E. cloacae 4184 (De-repressed AmpC)
# K. pneumoniae 700603 [23] = test: Agar MIC, K. pneumoniae 700603; type: cell-based; conditions: Klebsiella pneumoniae; K. pneumoniae 700603 (SHV-18)
# [24] = cited from earlier work
# E. cloacae 0060 [25] = test: Microbroth MIC, E. cloacae 0060; type: cell-based; conditions: Enterobacter cloacae; E. cloacae 0060 (cAmpC)
# [26] = tested on: K. pneumoniae ATCC BAA-1705; test: Microbroth MIC, K. pneumoniae ATCC BAA-1705; type: cell-based; conditions: Klebsiella pneumoniae
# E. cloacae 4182 [27] = test: Microbroth MIC, E. cloacae 4182; type: cell-based; conditions: Enterobacter cloacae; E. cloacae 4182 (De-repressed AmpC)
# K. pneumoniae 4582 [28] = test: Microbroth MIC, K. pneumoniae 4582; type: cell-based, Klebsiella pneumoniae
# E. coli ATCC 25922 [29] = test: Agar MIC, E. coli ATCC 25922; type: cell-based; conditions: Escherichia coli, ATCC25922; E. coli ATCC 25922 (Wildtype)
# E. cloacae 0065 [30] = test: Agar MIC, E. cloacae 0065; type: cell-based; conditions: Enterobacter cloacae; E. cloacae 0065 (cAmpC)
# E. coli 136-4643 [31] = test: Microbroth MIC, E. coli 136-4643; type: cell-based; conditions: Escherichia coli, 1364643; E. coli 136-4643 (CTX-M-15)
# E. coli 470-21711 [32] = test: Microbroth MIC, E. coli 470-21711; type: cell-based; conditions: Escherichia coli, 47021711; E. coli 470-21711 (CTX-M-15)
# E. cloacae 0002 [33] = test: Microbroth MIC, E. cloacae 0002; type: cell-based, Enterobacter cloacae
# 314 Enterobacteriaceae = type: cell-based; conditions: all isolates combined; avibactam at a fixed concentration of 4 μg/mL
# K. pneumoniae 15160 [34] = test: Microbroth MIC, K. pneumoniae 15160; type: cell-based; conditions: Klebsiella pneumoniae; K. pneumoniae 15160 (CTX-M-15, CTX-M-2, OXA-10, OXA-1, SHV-11, TEM-1)
# E. cloacae 4184 [35] = test: One-compartment in vitro infection (chemostat) model, E. cloacae 4184; type: cell-based, Enterobacter cloacae; conditions: for Average Log10 CFU/mL (+/− Range of Data), 5 × Ceftibuten + Avibactam at 4 mg/L MIC: Ceftibuten 400 mg q8h
# [36] = E. coli ATCC 25922 (Wildtype), read-out: Microbroth MIC
Structure (SMILES),MIC (E. coli ATCC 25922 [3]; [36]),MIC (E. cloacae 4184 [6]),MIC (K. pneumoniae 27144 [7]),MIC (K. pneumoniae 27144 [8]),MIC (E. coli 136-4643 [10]),MIC (E. coli ATCC 35218 [12]),MIC (E. coli 470-21711 [13]),MIC (K. pneumoniae 15160 [15]),MIC (E. coli ATCC 35218 [16]),MIC (E. cloacae 0065 [17]),MIC (K. pneumoniae 700603 [18]),MIC (E. cloacae 4182 [19]),MIC (E. cloacae 0060 [21]),MIC (E. cloacae 4184 [22]),MIC (K. pneumoniae 700603 [23]),MIC (E. cloacae 0060 [25]),MIC (E. cloacae 4182 [27]),MIC (E. coli ATCC 25922 [29]),MIC (E. cloacae 0065 [30]),MIC (E. coli 136-4643 [31]),further results
"NC(=O)[C@@H]1CC[C@@H]2CN1C(=O)N2OS(=O)(=O)O [avibactam, [2S,5R]-2-carbamoyl-7-oxo-1,6-diazabicyclo[3.2.1]octan-6-yl hydrogen sulfate]",16 µg/mL,16 µg/mL,512 µg/mL,64 µg/mL,8 µg/mL,16 µg/mL,8 µg/mL,16 µg/mL,8 µg/mL,16 µg/mL,64 µg/mL,16 µg/mL,16 µg/mL,32 µg/mL,64 µg/mL,32 µg/mL,32 µg/mL,8 µg/mL,8 µg/mL,256 µg/mL,"MIC (K. pneumoniae 908 [1]; Klebsiella pneumoniae, K. pneumoniae 908 (KPC-2, SHV-27, TEM-1), read-out: Microbroth MIC): 128 µg/mL; MIC (K. pneumoniae 19701 [2]; Klebsiella pneumoniae, K. pneumoniae 19701 (KPC-2), read-out: agar MIC): 32 µg/mL; MIC (K. pneumoniae 79 [4]; Klebsiella pneumoniae, K. pneumoniae 79 (KPC-3, FOX-5, TEM-1 SHV-11), read-out: agar MIC): 16 µg/mL; MIC (K. pneumoniae 908 [5]; Klebsiella pneumoniae, K. pneumoniae 908 (KPC-2, SHV-27, TEM-1), read-out: agar MIC): 128 µg/mL; MIC (K. pneumoniae 4582 [9]; Klebsiella pneumoniae, K. pneumoniae 4582 (KPC-3), read-out: agar MIC): 8 µg/mL; MIC (K. pneumoniae 19701 [11]; Klebsiella pneumoniae, K. pneumoniae 19701 (KPC-2), read-out: Microbroth MIC): > 512 µg/mL; MIC (E. cloacae 0002 [14]; Enterobacter cloacae, E. cloacae 0002 (KPC-3, OXA-9, TEM-1A), read-out: agar MIC): 16 µg/mL; Microbroth MIC (K. pneumoniae 79 [20]; K. pneumoniae 79 (KPC-3, FOX-5, TEM-1 SHV-11), listed as AVI): 16 µg/mL and 32 µg/mL; plasma protein binding ([24]; assumed for free-drug profiles): 6.95%; MIC ([26]; ATCCBAA1705, K. pneumoniae ATCC BAA-1705 (KPC-2), read-out: Microbroth MIC): 16 µg/mL; Microbroth MIC (K. pneumoniae 4582 [28]; K. pneumoniae 4582 (KPC-3), listed as AVI): 64 µg/mL and 32 µg/mL; MIC (E. coli 470-21711 [32]): 16 µg/mL; MIC (E. cloacae 0002 [33]; Enterobacter cloacae, E. cloacae 0002 (KPC-3, OXA-9, TEM-1A), read-out: Microbroth MIC): 32 µg/mL"
"Nc1nc(/C(=C/CC(=O)O)C(=O)N[C@@H]2C(=O)N3C(C(=O)O)=CCS[C@H]23)cs1 [ceftibuten, (6R,7R)-7-((Z)-2-(2-amino-4-thiazolyl)-4-carboxycrotonamido)-8-oxo-5-thia-1-azabicyclo(4.2.0)oct-2-ene-2-carboxylic acid]",0.5 µg/mL,> 64 µg/mL,64 µg/mL,32 µg/mL,8 µg/mL,0.125 µg/mL,32 µg/mL,32 µg/mL,0.125 µg/mL,> 64 µg/mL,0.5 µg/mL,> 64 µg/mL,> 64 µg/mL,> 64 µg/mL,0.5 µg/mL,> 64 µg/mL,> 64 µg/mL,0.5 µg/mL,> 64 µg/mL,32 µg/mL,"MIC (K. pneumoniae 908 [1]; Klebsiella pneumoniae, 908, read-out: Microbroth MIC): 32 µg/mL; MIC (K. pneumoniae 19701 [2]; Klebsiella pneumoniae, 19701, read-out: agar MIC): 32 µg/mL; MIC (E. coli ATCC 25922 [3]; E. coli ATCC 25922 (Wild type), read-out: MIC): 0.5 µg/mL; MIC (K. pneumoniae 79 [4]; Klebsiella pneumoniae, 79, read-out: agar MIC): 64 µg/mL; MIC (K. pneumoniae 908 [5]; Klebsiella pneumoniae, 908, read-out: agar MIC): 32 µg/mL; MIC (K. pneumoniae 4582 [9]; Klebsiella pneumoniae, 4582, read-out: agar MIC): 16 µg/mL; MIC90 with addition of avibactam (314 Enterobacteriaceae): 0.5 µg/mL; MIC (K. pneumoniae 19701 [11]; Klebsiella pneumoniae, 19701, read-out: Microbroth MIC): 64 µg/mL; MIC (E. cloacae 0002 [14]; Enterobacter cloacae, 0002, read-out: agar MIC): 16 µg/mL; MIC (K. pneumoniae 15160 [34]): 64 µg/mL; MIC (K. pneumoniae 79 [20]; Klebsiella pneumoniae, 79, read-out: Microbroth MIC): > 64 µg/mL; plasma protein binding ([24]; plasma): 65.0%; Average Log10 CFU/mL (+/− Range of Data), 5 × Ceftibuten + Avibactam at 4 mg/L MIC (E. cloacae 4184 [35]; 0 h): 0.99 (0.31) Log10 CFU/mL; Average Log10 CFU/mL (+/− Range of Data), 5 × Ceftibuten + Avibactam at 4 mg/L MIC (E. cloacae 4184 [35]; 24 h): 1.68 (0.20) Log10 CFU/mL; bacterial burden response over 24 hours (E. cloacae 4184 [35]; ceftibuten 200 mg q8h monotherapy): no activity; bacterial burden response over 24 hours (E. cloacae 4184 [35]; ceftibuten 400 mg q8h monotherapy): did not reduce the bacterial burden; MIC ([26]; ATCCBAA1705, read-out: Microbroth MIC): 16 µg/mL; MIC (K. pneumoniae 4582 [28]; Klebsiella pneumoniae, 4582, read-out: Microbroth MIC): 32 µg/mL; MIC (E. coli 470-21711 [32]): 64 µg/mL; MIC (E. cloacae 0002 [33]; Enterobacter cloacae, 0002, read-out: Microbroth MIC): 32 µg/mL"
